# Columns and labels:
# [1] = Assay B: Microsomal clearance; type: in vitro ADME, human; settings: pooled liver microsomes, 37° C., 1 mg/ml protein, test compound 1 μM, NADPH
# Description: Assay B: Microsomal Clearance:
# The metabolic degradation of the test compound is assayed at 37° C. with pooled liver microsomes. The final incubation volume of 100 μl per time point contains TRIS buffer pH 7.6 at RT (0.1 M), magnesium chloride (5 mM), microsomal protein (1 mg/ml) and the test compound at a final concentration of 1 μM.
# Following a short preincubation period at 37° C., the reactions are initiated by addition of beta-nicotinamide adenine dinucleotide phosphate, reduced form (NADPH, 1 mM) and terminated by transferring an aliquot into solvent after different time points (0, 5, 15, 30, 60 min). Additionally, the NADPH-independent degradation is monitored in incubations without NADPH, terminated at the last time point. The [%] remaining test compound after NADPH independent incubation is reflected by the parameter c (control) (metabolic stability). The quenched incubations are pelleted by centrifugation (10000 g, 5 min).
# An aliquot of the supernatant is assayed by LC-MS/MS for the amount of parent compound. The half-life (t½ INVITRO) is determined by the slope of the semilogarithmic plot of the concentration-time profile.
# The intrinsic clearance (CL_[…]) is calculated by considering the amount of protein in the incubation: CL _[…] [μl/min/mg protein]=(Ln 2/(half-life [min]*protein content [mg/ml]))*1000 CL_[…]_INVIVO [ml/min/kg]=(CL_[…] [μL/min/mg protein]×MPPGL [mg protein/g liver]×liver factor [g/kg bodyweight])/1000 Qh [%]=CL [ml/min/kg]/hepatic blood flow [ml/min/kg])
# (§1) Hepatocellularity, human: 120×10e6 cells/g liver
# (§2) Liver factor, human: 25.7 g/kg bodyweight
# (§3) Blood flow, human: 21 ml/(min×kg)
# human hepatocytes = assay: Assay C: Hepatocyte clearance; type: in vitro ADME; settings: hepatocyte suspension, 5% species serum, test compound 1 μM, six hours
# Description: Assay C: Hepatocyte Clearance
# The metabolic degradation of the test compound is assayed in a hepatocyte suspension. Hepatocytes (cryopreserved) are incubated in Dulbecco's modified eagle medium (supplemented with 3.5 μg glucagon/500 mL, 2.5 mg insulin/500 mL and 3.75 mg/500 mL hydrocortison) containing 5% species serum.
# The cells are incubated for six hours (incubator, orbital shaker) and samples ([…]) are taken at 0, 0.5, 1, 2, 4 and 6 hours. Samples are transferred into acetonitrile and pelleted by centrifugation (5 min). The supernatant is transferred to a new 96-deepwell plate, evaporated under nitrogen and resuspended.
# Decline of Parent Compound is Analyzed by HPLC-MS/MS
# CLint is calculated as follows CL_[…]=Dose/AUC=(C0/CD)/(AUD+clast/k)×1000/60. C0: initial concentration in the incubation [μM], CD: cell density of vital cells [10e6 cells/mL], AUD: area under the data [μM×h], clast: concentration of last data point [μM], k: slope of the regression line for parent decline [h−1].
# The calculated in vitro hepatic intrinsic clearance can be scaled up to the intrinsic in vivo hepatic Clearance and used to predict hepatic in vivo blood clearance (CL) by the use of a liver model (well stirred model). CL_[…]_INVIVO [ml/min/kg]=(CL_[…] [μL/min/10e6cells]×hepatocellularity [10e6 cells/g liver]×liver factor [g/kg bodyweight])/1000 CL [ml/min/kg]=CL_[…]_INVIVO [ml/min/kg]×hepatic blood flow [ml/min/kg]/(CL_[…]_INVIVO [ml/min/kg]+hepatic blood flow [ml/min/kg]) Qh [%]=CL [ml/min/kg]/hepatic blood flow [ml/min/kg])
# as §1, §2, §3
# human TRPA1 ion channel = biological target: T1, human TRPA1 ion channel (Homo sapiens, UniProt O75762); assay: Assay A: TRPA1 assay (in vitro TRPA1 cell assay, FLIPR calcium); type: cell-based; settings: read-out: hTRPA1 IC50
# T1 construct: host or cells: HEK293
# T1 sequence (O75762 whole entry): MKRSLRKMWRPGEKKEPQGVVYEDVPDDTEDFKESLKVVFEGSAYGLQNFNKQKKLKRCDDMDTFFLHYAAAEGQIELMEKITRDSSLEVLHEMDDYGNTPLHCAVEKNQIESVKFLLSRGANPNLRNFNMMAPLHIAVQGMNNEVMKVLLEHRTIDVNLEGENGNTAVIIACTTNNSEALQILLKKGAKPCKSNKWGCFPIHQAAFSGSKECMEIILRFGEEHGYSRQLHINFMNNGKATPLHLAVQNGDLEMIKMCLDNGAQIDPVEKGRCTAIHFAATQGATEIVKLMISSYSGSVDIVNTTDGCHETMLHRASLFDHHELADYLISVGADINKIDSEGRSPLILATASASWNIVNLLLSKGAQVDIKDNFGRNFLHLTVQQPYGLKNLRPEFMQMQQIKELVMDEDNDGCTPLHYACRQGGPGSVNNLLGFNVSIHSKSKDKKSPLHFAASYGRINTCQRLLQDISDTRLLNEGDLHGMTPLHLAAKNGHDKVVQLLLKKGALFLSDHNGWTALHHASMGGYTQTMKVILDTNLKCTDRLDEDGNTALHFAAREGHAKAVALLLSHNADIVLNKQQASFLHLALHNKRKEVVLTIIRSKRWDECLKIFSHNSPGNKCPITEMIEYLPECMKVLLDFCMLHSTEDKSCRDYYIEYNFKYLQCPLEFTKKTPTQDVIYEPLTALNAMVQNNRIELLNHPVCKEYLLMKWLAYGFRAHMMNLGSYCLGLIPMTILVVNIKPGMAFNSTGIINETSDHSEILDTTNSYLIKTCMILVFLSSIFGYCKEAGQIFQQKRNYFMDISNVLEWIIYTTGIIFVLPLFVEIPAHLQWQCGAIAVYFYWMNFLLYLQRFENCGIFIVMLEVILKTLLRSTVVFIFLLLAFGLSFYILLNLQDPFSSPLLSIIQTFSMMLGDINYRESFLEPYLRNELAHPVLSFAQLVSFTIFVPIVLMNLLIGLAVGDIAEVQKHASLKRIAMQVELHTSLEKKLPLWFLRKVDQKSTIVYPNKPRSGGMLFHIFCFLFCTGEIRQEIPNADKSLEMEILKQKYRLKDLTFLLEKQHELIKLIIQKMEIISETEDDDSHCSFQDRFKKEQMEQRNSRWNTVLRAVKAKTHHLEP
# Description: A human HEK293 cell line over-expressing the human TRPA1 ion channel (Perkin Elmer, Product No. AX-004-PCL) is used as a test system for compound efficacy and potency. Compound activity is determined by measuring the effect of compounds on intracellular calcium concentration induced by AITC (Allylisothiocyanat) agonism in a FLIPRtetra system (Molecular Devices).
# The cells are obtained as frozen cells in cryo-vials and stored until use at −150° C.
# Cells are grown in culture medium (MEM/EBSS medium with 10% FCS and 0.4 mg/ML Geneticin). […] For sub-culturing cells are detached from flasks by Versene. At the day before the assay, cells are detached, washed twice with medium (MEM/EBSS medium with 10% FCS) and 20000 cells in 20 μl/well are seeded to Poly D-Lysin biocoated 384-well plates (black, clear bottom, Cat. 356697) from Corning. Plates are incubated for 24 hours at 37° C./5% CO2 before use in the assay.
# The test compounds are dissolved in 100% DMSO at a concentration of 10 mM and in a first step diluted in DMSO to a concentration of 5 mM, followed by serial dilution steps in 100% DMSO. Dilution factor and number of dilution steps may vary according to needs. Typically 8 different concentrations by 1:5 dilutions are prepared, further intermediate dilutions (1:20) of the substances are carried out with HBSS/HEPES buffer (1×HEPES, Cat. 14065 from Gibco, 20 mM HEPES, Cat. 83264 from SIGMA, 0.1% BSA Cat. 11926 from Invitrogen, pH 7.4
# At the assay day cells are washed 3× with assay puffer, 20 μL buffer remaining in the wells after washing. 10 μL Ca6 kit (Cat. R8191 MolecularDevices) loading buffer in HBSS/HEPES is added to the cells and the plates are incubated with lid for 120 minutes at 37°/5% CO2. 10 μL of compound or controls in HBSS/HEPES buffer/5% DMSO from the intermediate dilution plate are carefully added to the wells. […] Finally 10 μL of the agonist AITC 50 μM dissolved in HBSS/HEPES buffer/0.05% DMSO (final concentration 10 μM) is added to the wells followed by an additional read on the FLIPRtetra device for 10 minutes. The area under the signal curve (AUC) after AITC addition is used for IC50/% inhibition calculations
# Data Evaluation and Calculation:
# Each assay microtiter plate contains wells with vehicle (1% DMSO) controls instead of compound as controls for AITC induced luminescence (100% CTL; high controls) and wells with vehicle controls without AITC as controls for non-specific changes in luminescence (0% CTL; low controls).
# The analysis of the data is performed by the calculation of the area under signal curve of the individual wells. Based on this values the % value for the measurement of each substance concentration is calculated (AUC(sample)−AUC(low))*100/(AUC(high)−AUC(low)) using MegaLab software (in house development). The IC50 values are calculated from the % control values using MegaLab software. Calculation: [y=(a−d)/(1+(x/c)^b)+d], a=low value, d=high value; x=conc M; c=IC50 M; b=hill; y=% ctrl
Structure (SMILES),human LM [% Qh] [1],human Hepatocytes [% Qh] (human hepatocytes),IC50 (human TRPA1 ion channel)
Cc1ccc([C@@H](O)Cc2noc(Cn3ncc4c(c3=O)n(C)c(=O)n4C)n2)cc1 [Example 2],<23 % Qh,14 % Qh,47 nM
Cn1c(=O)n(C)c2c(=O)n(Cc3nc(C[C@H](O)c4ccc(F)cc4)no3)ncc21 [Example 3],<23 % Qh,13 % Qh,147 nM
Cn1c(=O)n(C)c2c(=O)n(Cc3nc(C[C@H](O)c4cc5ccccc5o4)no3)ncc21 [Example 4],<23 % Qh,9 % Qh,158 nM
Cn1cnc2cnn(Cc3nc(C[C@H](O)c4ccc(Cl)cc4)no3)c(=O)c21 [Example 5],<23 % Qh,23 % Qh,60 nM
Cc1ccc([C@@H](O)Cc2noc(Cn3ncc4ncn(C)c4c3=O)n2)cc1 [Example 6],<23 % Qh,9 % Qh,96 nM
Cn1cnc2cnn(Cc3nc(C[C@H](O)c4ccc5c(c4)OCO5)no3)c(=O)c21 [Example 7],<23 % Qh,9 % Qh,204 nM
Cn1c(=O)n(C)c2c(=O)n(Cc3nc(C[C@H](O)c4cc5cc(Cl)ccc5o4)no3)ncc21 [Example 15],<23 % Qh,12 % Qh,47 nM
Cn1c(=O)n(C)c2c(=O)n(Cc3nc(C[C@H](O)c4cc5cc(F)ccc5o4)no3)ncc21 [Example 16],<23 % Qh,14 % Qh,79 nM

# Stronger by IC50 (human TRPA1 ion channel), values ahead:
human LM [% Qh] [1],human Hepatocytes [% Qh] (human hepatocytes),IC50 (human TRPA1 ion channel),Structure (SMILES)
<23 % Qh,10 % Qh,22 nM,"Cn1c(=O)n(C)c2c(=O)n(Cc3nc(C[C@H](O)c4ccc(Cl)cc4)no3)ncc21 [Example 1, 5-({3-[(2S)-2-(4-chlorophenyl)-2-hydroxyethyl]-1,2,4-oxadiazol-5-yl}methyl)-1,3-dimethyl-1H,2H,3H,4H,5H-imidazo[4,5-d]pyridazine-2,4-dione]"
<23 % Qh,39 % Qh,41 nM,"Cn1cnc2cnn(Cc3nc(C[C@H](O)c4ccc(Br)cc4)no3)c(=O)c21 [Example 8, 6-({3-[(2S)-2-(4-bromophenyl)-2-hydroxyethyl]-1,2,4-oxadiazol-5-yl}methyl)-1-methyl-1H,6H,7H-imidazo[4,5-d]pyridazin-7-one]"
41 % Qh,43 % Qh,9 nM,Cn1cnc2cnn(Cc3nc(C[C@H](O)c4cc5ccc(F)cc5s4)no3)c(=O)c21 [Example 9]
<23 % Qh,29 % Qh,13 nM,Cn1cnc2cnn(Cc3nc(C[C@H](O)c4cc5cc(F)ccc5o4)no3)c(=O)c21 [Example 10]
30 % Qh,35 % Qh,19 nM,Cn1cnc2cnn(Cc3nc(C[C@H](O)c4cc5cc(Cl)ccc5o4)no3)c(=O)c21 [Example 11]
31 % Qh,42 % Qh,24 nM,Cn1cnc2cnn(Cc3nc(C[C@H](O)c4cc5ccccc5s4)no3)c(=O)c21 [Example 12]
36 % Qh,,9 nM,Cn1c(=O)n(C)c2c(=O)n(Cc3nc(C[C@H](O)c4cc5ccc(F)cc5s4)no3)ncc21 [Example 13]
<23 % Qh,43 % Qh,19 nM,Cn1c(=O)n(C)c2c(=O)n(Cc3nc(C[C@H](O)c4cc5ccccc5s4)no3)ncc21 [Example 14]

# Source: patent US11878981B2, “Substituted 1,2,4-oxadiazoles as TRPA1 inhibitors” (Boehringer Ingelheim International GmbH, priority 2021, dated 2024)
